Numbers after ± are expanded uncertainties.
Assay: wn = mass fraction of the nth substance listed
Conditions: 294.9 K, Liquid; for viscosity: Cone and plate viscometry; for mass density: Vibrating tube method

CC [ethane] + CO
Conditions	mass density [kg/m3]	viscosity [mPa·s]
1196 kPa, w1 = 0.056	750 ± 2	0.54 ± 0.02
2123 kPa, w1 = 0.12	720 ± 2	0.43 ± 0.02
3130 kPa, w1 = 0.225	671 ± 2	0.32 ± 0.01

From the NIST ThermoML archive (doi:10.1016/j.fluid.2010.12.012)
